Experimental data taken from paper PMC8954508, “α-Glucosidase and Bacterial β-Glucuronidase Inhibitors from the Stems of Schisandra sphaerandra Staph” (Pharmaceuticals, 2022).
Read-outs that look alike come from different tables or passages of the source.

Columns and labels:
Assay type in all cases: biochemical
[1] = target: T1, bacterial β-glucuronidase (BGUS) (Escherichia coli, UniProt P05804); test: BGUS (β-glucuronidase) inhibitory assay; details: in vitro; for IC50: means ± SD
Description: (§1) The AGS [23, 24, 25, 26] and BGUS [27] inhibitory activities were evaluated by the methods reported in the literature, respectively.

α-Glucosidase (AGS) [2] = target: T2, α-Glucosidase (AGS) (Saccharomyces cerevisiae, UniProt P53341); test: AGS (α-glucosidase) inhibitory assay
Description: as §1

α-Glucosidase (AGS) [3] = target: T2, α-Glucosidase (AGS); test: Inhibition kinetics against AGS (Lineweaver–Burk plots); details: for mode of inhibition against AGS: Lineweaver–Burk plots; for Ki: AGS, secondary plot of slope versus [I], read-out: Ki (inhibition constant of the enzyme)
Description: (§2) The mode of inhibition for the active compounds was determined by the Lineweaver–Burk plot fitted by GraphPad Prism 8.0 software. The Km value and the Vmax value were obtained from the slope and Y-axis intercept of the Lineweaver–Burk plot based on the following equation:(1) Vmax=1/Y−intercept (2) Km=slope× Vmax
(§3) The Ki and Ki’ values were available by secondary plotting of the slope and Y-intercept on the Lineweaver–Burk plot versus the inhibitor [I] through the following equations:(3) Slope=Km/Vmax+Km[I]/VmaxKi (4) Y−intercept=1/Vmax+[I]/VmaxKi′

[4] = target: T1, bacterial β-glucuronidase (BGUS); test: Inhibition kinetics against BGUS (Lineweaver–Burk plots)
Description: as §2, §3

[5] = in vitro, means ± SD, read-out: IC50 α-Glucosidase

T1 sequence (P05804 whole entry): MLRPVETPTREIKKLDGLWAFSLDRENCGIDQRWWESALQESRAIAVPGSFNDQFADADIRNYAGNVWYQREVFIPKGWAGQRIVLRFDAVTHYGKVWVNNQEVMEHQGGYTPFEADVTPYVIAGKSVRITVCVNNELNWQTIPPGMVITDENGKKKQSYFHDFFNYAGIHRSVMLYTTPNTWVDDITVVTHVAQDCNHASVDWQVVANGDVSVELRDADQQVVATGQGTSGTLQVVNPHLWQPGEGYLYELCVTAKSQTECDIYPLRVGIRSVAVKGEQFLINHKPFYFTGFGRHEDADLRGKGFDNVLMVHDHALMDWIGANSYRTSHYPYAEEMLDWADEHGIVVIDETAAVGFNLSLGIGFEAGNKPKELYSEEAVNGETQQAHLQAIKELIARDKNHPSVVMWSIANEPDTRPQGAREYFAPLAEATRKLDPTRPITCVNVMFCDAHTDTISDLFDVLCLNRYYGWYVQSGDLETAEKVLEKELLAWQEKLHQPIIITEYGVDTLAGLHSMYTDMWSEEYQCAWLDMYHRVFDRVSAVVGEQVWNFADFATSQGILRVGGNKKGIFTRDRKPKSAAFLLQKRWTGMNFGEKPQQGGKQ
T2 sequence (P53341 whole entry): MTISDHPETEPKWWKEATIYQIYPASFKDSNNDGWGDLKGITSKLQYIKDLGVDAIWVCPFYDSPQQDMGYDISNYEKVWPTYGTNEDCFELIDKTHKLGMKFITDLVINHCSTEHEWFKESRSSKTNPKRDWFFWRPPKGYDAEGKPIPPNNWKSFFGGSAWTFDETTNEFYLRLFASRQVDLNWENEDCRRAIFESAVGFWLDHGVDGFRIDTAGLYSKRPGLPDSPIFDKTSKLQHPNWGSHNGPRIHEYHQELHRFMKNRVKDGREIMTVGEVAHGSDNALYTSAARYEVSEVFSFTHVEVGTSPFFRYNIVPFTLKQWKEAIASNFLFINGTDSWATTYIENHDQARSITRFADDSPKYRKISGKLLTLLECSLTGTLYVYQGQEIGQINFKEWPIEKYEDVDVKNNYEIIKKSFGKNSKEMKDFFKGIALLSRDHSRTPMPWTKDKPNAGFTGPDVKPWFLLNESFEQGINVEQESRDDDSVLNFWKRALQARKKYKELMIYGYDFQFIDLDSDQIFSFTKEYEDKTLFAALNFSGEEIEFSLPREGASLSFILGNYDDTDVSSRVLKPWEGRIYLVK

## O=C(O)[C@@H](O)[C@H]1OC(=O)[C@H](O)[C@H]1O [DSL, D-Saccharic 1,4-lactone, reference compound]
[1]
  IC50: 56.9 ± 1.57 µM

## C=C(C)[C@@H]1CC[C@@H]2[C@]3(CC[C@]4(C)C(=O)CC[C@@]24C)C[C@]13CCC(=O)OC [Compound 5, schiglausin L]
α-Glucosidase (AGS) [2]; [5]
  IC50: 42.9 ± 1.04 µM
α-Glucosidase (AGS) [3]
  mode of inhibition against AGS: could not be well defined

## C=C(C)[C@@H]1CC[C@@H]2[C@]3(CC[C@]4(C)[C@@H]([C@H](C)CC/C=C(/C)C(=O)O)CC[C@@]24C)C[C@]13CCC(=O)OC [Compound 4, 3,4-seco-(24Z)-cycloart-4(28),24-diene-3,26-dioic-3-methyl ester]
α-Glucosidase (AGS) [2]; [5]
  IC50: 14.1 ± 0.29 µM
[1]
  BGUS inhibitory activity (in words): weak activity
  IC50: 155 ± 4.68 µM
α-Glucosidase (AGS) [3]
  Ki: 7.97 µM
  mode of inhibition against AGS: competitive inhibitors

## CC1=CCC(C(C)C2CCC3(C)C4CCC5C(C)(C)OC(=O)C=CC56CC46CCC23C)OC1=O (stereo not shown) [Compound 3, schisanlactone B]
α-Glucosidase (AGS) [2]; [5]
  IC50: 29.5 ± 0.7 µM
[1]
  IC50: 14.7 ± 0.1 µM
α-Glucosidase (AGS) [3]
  Ki: 10.5 µM
  mode of inhibition against AGS: mixed-type inhibitors
[4]
  mode of inhibition against BGUS: mixed-type inhibitor

## CC(=O)OC1CC2=C(CCC3C(=C2)C=CC(=O)OC3(C)C)C2(C)CCC(C(C)C3CC=C(C)C(=O)O3)C12C (stereo not shown) [Compound 1, Sphaerandralide A]
α-Glucosidase (AGS) [2]
  IC50: 61.5 ± 1.75 µM
α-Glucosidase (AGS) [3]
  Ki: 35.8 µM
  mode of inhibition against AGS: mixed-type inhibitors
